Data: patent US12187721B2, “Protein tyrosine phosphatase inhibitors” (Array BioPharma Inc., priority 2018, dated 2025)
Where two headings read alike, the source gives them in different places.

What was measured:
[1] = target: T1, full-length SHP2 (His6-tagged SHP2(2-527)) (Homo sapiens, UniProt Q06124); experiment: SHP2 Enzymatic Assay (fluorescence intensity kinetic assay, DiFMUP hydrolysis); format: biochemical
T1 construct: His6-tagged SHP2(2-527); His6; made in house; host or cells: E. coli
Summary of the method: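 1 nM His6-SHP2(2-527), activated by 1 μM bis-phosphopeptide, hydrolysed 50 μM DiFMUP in 25 mM HEPES pH 7.4 with 1 mM DTT, 50 mM KCl and 2% DMSO. DiFMU fluorescence (Ex 355/Em 460 nm) was read kinetically for 15 min at ambient temperature.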

[2] = test system: ERK1/2 (Thr202/Tyr204) phosphorylation in KYSE520 cells; experiment: Cellular Phospho-p44/42 MAPK (Erk 1/2) (Thr202/Tyr204) Assay (In-Cell Western); format: cell-based; settings: Homo sapiens, KYSE-520, 1 h, read-out: Biological Example 2 IC50 (nM)
Experimental: KYSE520 cells were obtained from DSMZ and grown in RPMI supplemented with 10% fetal bovine serum, pennicillin/streptomycin, 2 mM L-alanyl-L-glutamine dipeptide in 0.85% NaCl (Glutamax™), non-essential amino acids, and sodium pyruvate. Cells were plated in 96-well plates at 30,000 cells/well and allowed to attach overnight at 37° C./5% CO2. Cells were treated with compounds prepared as a 10-point, 1:3 dilution series (range: 20 μM-1 nM), with a final DMSO concentration of 0.5%. After 1 hour incubation, cells were fixed in 3.7% formaldehyde in Dulbecco's phosphate-buffered saline (“dPBS”) at room temperature for 20 minutes. Cells were then washed with dPBS and permeabilized in 100% MeOH at room temperature for 10 minutes. Following permeabilization, cells were washed in dPBS and incubated in LI-COR Blocking Buffer (LI-COR Biosciences, Cat #927-40000) for 1 hour or longer. Plates were then incubated with an antibody specific for the MEK-dependent ERK1/2 phosphorylation sites, threonine 202 and tyrosine 204 (Cell Signaling Technologies; Cat #9101), downstream of SHP2 in the MAP kinase signal transduction pathway, as well as GAPDH (Millipore; Cat #MAB374). pErk1/2 (Thr202/Tyr204) antibody was diluted in LI-COR blocking buffer containing 0.05% polysorbate-20 (Tween-20) at 1:250; GAPDH was diluted at 1:2,500. The plates were incubated overnight at 4° C. After washing with PBS/0.05% Tween-20, the cells were incubated with fluorescently-labeled secondary antibodies (Anti-rabbit-Alexa Flour680, Invitrogen Cat #A21109; Anti-mouse-IRDye800CW, Li-cor Bioscieces Cat #926-32210, both at 1:1000 dilution) for 1 hour. Cells were then washed, as above, and analyzed for fluorescence at both 680 nm and 800 nm wavelengths using the Aerius Infrared Imaging System (LI-COR Biosciences, Model 9250). Phosphorylated Erk1/2 (Thr202/Tyr204) signal was normalized to GAPDH signal for each well. IC50 values were calculated from the normalized values using a 4-parameter fit in BioAssay software. […] The reported IC50 in Table 2 may be from a single assay or the mean of multiple assays.

[3] = full-length SHP2 with 1 μM activating peptide, 50 μM DiFMUP, single assay or mean of multiple assays, read-out: Biological Example 1 IC50

T1 sequence (Q06124 2-527): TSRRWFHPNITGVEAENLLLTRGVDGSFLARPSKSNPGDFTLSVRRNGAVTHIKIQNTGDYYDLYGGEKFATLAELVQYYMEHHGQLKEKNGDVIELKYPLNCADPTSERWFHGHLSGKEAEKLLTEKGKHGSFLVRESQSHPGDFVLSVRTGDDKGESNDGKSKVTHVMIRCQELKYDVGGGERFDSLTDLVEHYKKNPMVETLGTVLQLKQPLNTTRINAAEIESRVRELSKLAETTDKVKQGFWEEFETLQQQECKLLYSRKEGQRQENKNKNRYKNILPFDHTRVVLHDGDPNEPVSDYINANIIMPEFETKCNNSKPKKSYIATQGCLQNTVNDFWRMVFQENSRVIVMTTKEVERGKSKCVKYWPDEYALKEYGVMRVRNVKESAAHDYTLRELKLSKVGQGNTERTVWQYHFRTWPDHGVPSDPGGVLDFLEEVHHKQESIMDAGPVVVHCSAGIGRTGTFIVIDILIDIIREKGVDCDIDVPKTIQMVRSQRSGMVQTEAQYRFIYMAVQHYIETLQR

Row | Compound | IC50 [1] | IC50 [2] | IC50 [1, 3]
1 | CC(C)(C#N)CNc1nccc(Sc2ccc3nc(N4CCC(C)(N)CC4)cnc3n2)c1Cl [Example 134, 3-((4-((2-(4-amino-4-methylpiperidin-1-yl)pyrido[2,3-b]pyrazin-6-yl)thio)-3-chloropyridin-2-yl)amino)-2,2-dimethylpropanenitrile] | 238 nM | 810 nM | 
2 | Nc1nccc(Sc2ccc3nc(N4CCC5(CC4)Cc4ncc(F)cc4[C@H]5N)cnc3n2)c1Cl [Example 117, (S)-1′-(6-((2-amino-3-chloropyridin-4-yl)thio)pyrido[2,3-b]pyrazin-2-yl)-3-fluoro-5,7-dihydrospiro[cyclopenta[b]pyridine-6,4′-piperidin]-5-amine] |  | 6 nM | 50 nM
3 | N[C@@H]1c2cccnc2CC12CCN(c1cnc3nc(Sc4ccnc(NCCO)c4Cl)ccc3n1)CC2 [Example 108, (S)-2-((4-((2-(5-amino-5,7-dihydrospiro[cyclopenta[b]pyridine-6,4′-piperidin]-1′-yl)pyrido[2,3-b]pyrazin-6-yl)thio)-3-chloropyridin-2-yl)amino)ethan-1-ol] | 84 nM | 11 nM | 
4 | C[C@@H]1OCC2(CCN(c3cnc4nc(Sc5ccnc(NCCO)c5Cl)ccc4n3)CC2)[C@@H]1N [Example 185, 2-((4-((2-((3S,4S)-4-amino-3-methyl-2-oxa-8-azaspiro[4.5]decan-8-yl)pyrido[2,3-b]pyrazin-6-yl)thio)-3-chloropyridin-2-yl)amino)ethan-1-ol] | 408 nM | 166 nM | 
5 | C[C@@H]1OCC2(CCN(c3cnc4nc(Sc5ccnc(N6CCCC6)c5Cl)ccc4n3)CC2)[C@@H]1N [Example 25, (3S,4S)-8-(6-((3-chloro-2-(pyrrolidin-1-yl)pyridin-4-yl)thio)pyrido[2,3-b]pyrazin-2-yl)-3-methyl-2-oxa-8-azaspiro[4.5]decan-4-amine] | 100 nM | 650 nM | 
6 | C[C@@H]1OCC2(CCN(c3cnc4nc(Sc5ccnc6[nH]ccc56)ccc4n3)CC2)[C@@H]1N [Example 189, (3S,4S)-8-(6-((1H-pyrrolo[2,3-b]pyridin-4-yl)thio)pyrido[2,3-b]pyrazin-2-yl)-3-methyl-2-oxa-8-azaspiro[4.5]decan-4-amine] | 59 nM | 98 nM | 
7 | N[C@@H]1c2ccccc2CC12CCN(c1cnc3nc(Sc4ccnc5c4C(F)(F)C(=O)N5)ccc3n1)CC2 [Example 142, (S)-4-((2-(1-amino-1,3-dihydrospiro[indene-2,4′-piperidin]-1′-yl)pyrido[2,3-b]pyrazin-6-yl)thio)-3,3-difluoro-1,3-dihydro-2H-pyrrolo[2,3-b]pyridin-2-one] | 26 nM | 4 nM | 
8 | C[C@@H]1OCC2(CCN(c3cnc4nc(Sc5cccc(Cl)c5Cl)ccc4n3)CC2)[C@@H]1N [Example 4, (3S,4S)-8-(6-((2,3-dichlorophenyl)thio)pyrido[2,3-b]pyrazin-2-yl)-3-methyl-2-oxa-8-azaspiro[4,5]decan-4-amine] | 64 nM | 550 nM | 
9 | Cc1nccc(Sc2ccc3nc(N4CCC(N)(CO)CC4)cnc3n2)c1Cl [Example 57, (4-amino-1-(6-((3-chloro-2-methylpyridin-4-yl)thio)pyrido[2,3-b]pyrazin-2-yl)piperidin-4-yl)methanol] | 49 nM | 91 nM | 
10 | Nc1nccc(Sc2ccc3nc(N4CCC5(CC4)CC(F)(F)C[C@H]5N)cnc3n2)c1Cl (stereo in doubt) [Example 218, 8-(6-((2-amino-3-chloropyridin-4-yl)thio)pyrido[2,3-b]pyrazin-2-yl)-3,3-difluoro-8-azaspiro[4.5]decan-1-amine] | 47 nM | 67 nM | 
11 | C[C@@H]1OCC2(CCN(c3cnc4nc(Sc5ccnc(N6CCC(O)CC6)c5Cl)ccc4n3)CC2)[C@@H]1N [Example 78, 1-(4-((2-((3S,4S)-4-amino-3-methyl-2-oxa-8-azaspiro[4.5]decan-8-yl)pyrido[2,3-b]pyrazin-6-yl)thio)-3-chloropyridin-2-yl)piperidin-4-ol] | 331 nM | 87 nM | 
12 | Nc1nccc(Sc2ccc3nc(N4CC5COCC(C4)N5)cnc3n2)c1Cl [Example 207, 4-((2-(3-oxa-7,9-diazabicyclo[3.3.1]nonan-7-yl)pyrido[2,3-b]pyrazin-6-yl)thio)-3-chloropyridin-2-amine] | 730 nM |  | 
13 | COc1nccc(Sc2ccc3nc(N4CCC(C)(N)CC4)cnc3n2)c1Cl [Example 20, 1-(6-((3-chloro-2-methoxypyridin-4-yl)thio)pyrido[2,3-b]pyrazin-2-yl)-4-methylpiperidin-4-amine] | 360 nM |  | 
14 | CC(C)(N)C1CCN(c2cnc3nc(Sc4ccnc(N)c4Cl)ccc3n2)CC1 [Example 60, 4-((2-(4-(2-aminopropan-2-yl)piperidin-1-yl)pyrido[2,3-b]pyrazin-6-yl)thio)-3-chloropyridin-2-amine] | 245 nM |  | 
15 | C[C@@H]1OCC2(CCN(c3cnc4nc(Sc5ccnc(N6CC[C@@H](CO)C6)c5Cl)ccc4n3)CC2)[C@@H]1N [Example 106, ((R)-1-(4-((2-((3S,4S)-4-amino-3-methyl-2-oxa-8-azaspiro[4.5]decan-8-yl)pyrido[2,3-b]pyrazin-6-yl)thio)-3-chloropyridin-2-yl)pyrrolidin-3-yl)methanol] | 101 nM |  | 
16 | CC1(N)CCN(c2cnc3nc(Sc4ccnc5c4CCN5)ccc3n2)CC1 [Example 196, 1-(6-((2,3-dihydro-1H-pyrrolo[2,3-b]pyridin-4-yl)thio)pyrido[2,3-b]pyrazin-2-yl)-4-methylpiperidin-4-amine] | 563 nM |  | 
17 | Nc1nccc(Sc2ccc3nc(N4C[C@@H]5C[C@H]4CN5)cnc3n2)c1Cl [Example 203, 4-((2-((1S,4S)-2,5-diazabicyclo[2.2.1]heptan-2-yl)pyrido[2,3-b]pyrazin-6-yl)thio)-3-chloropyridin-2-amine] | 142 nM |  | 
18 | C[C@@H]1OCC2(CCN(c3cnc4nc(Sc5ccnc6[nH]cnc56)ccc4n3)CC2)[C@@H]1N [Example 131, (3S,4S)-8-(6-((3H-imidazo[4,5-b]pyridin-7-yl)thio)pyrido[2,3-b]pyrazin-2-yl)-3-methyl-2-oxa-8-azaspiro[4.5]decan-4-amine] | 419 nM |  | 
19 | CC1(N)CCN(c2cnc3nc(Sc4cccnc4N)ccc3n2)CC1 [Example 95, 3-((2-(4-amino-4-methylpiperidin-1-yl)pyrido[2,3-b]pyrazin-6-yl)thio)pyridin-2-amine] | 4720 nM |  | 
20 | CN(CCN)c1cnc2nc(-c3cccc(Cl)c3Cl)ccc2n1 [Example 29, N1-(6-(2,3-dichlorophenyl)pyrido[2,3-b]pyrazin-2-yl)-N1-methylethane-1,2-diamine] | 320 nM |  | 
21 | C[C@@H]1OCC2(CCN(c3cnc4nc(Sc5c(Cl)cnc6[nH]ccc56)ccc4n3)CC2)[C@@H]1N [Example 192, (3S,4S)-8-(6-((5-chloro-1H-pyrrolo[2,3-b]pyridin-4-yl)thio)pyrido[2,3-b]pyrazin-2-yl)-3-methyl-2-oxa-8-azaspiro[4.5]decan-4-amine] | 45 nM |  | 
22 | Nc1cc(Sc2ccc3nc(N4CCC5(CC4)Cc4ncccc4[C@H]5N)cnc3n2)c(Cl)cn1 [Example 133, (S)-1′-(6-((2-amino-5-chloropyridin-4-yl)thio)pyrido[2,3-b]pyrazin-2-yl)-5,7-dihydrospiro[cyclopenta[b]pyridine-6,4′-piperidin]-5-amine] | 92 nM |  | 
23 | Cc1nccc(Sc2ccc3nc(N4CCCC(C)(N)CC4)cnc3n2)c1Cl (stereo not drawn) [Example 147, 1-(6-((3-chloro-2-methylpyridin-4-yl)thio)pyrido[2,3-b]pyrazin-2-yl)-4-methylazepan-4-amine] | 50 nM |  | 
24 | N[C@@H]1c2cccnc2CC12CCN(c1cnc3nc(Sc4ccnc(N5CCC(O)CC5)c4Cl)ccc3n1)CC2 [Example 209, (S)-1-(4-((2-(5-amino-5,7-dihydrospiro[cyclopenta[b]pyridine-6,4′-piperidin]-1′-yl)pyrido[2,3-b]pyrazin-6-yl)thio)-3-chloropyridin-2-yl)piperidin-4-ol] | 40 nM |  | 
25 | CC1(N)CCN(c2cnc3nc(Oc4cccc(Cl)c4Cl)ccc3n2)CC1 [Example 15, 1-(6-(2,3-dichlorophenoxy)pyrido[2,3-b]pyrazin-2-yl)-4-methylpiperidin-4-amine] |  |  | 340 nM
